This note sets out measurements from US11872262B2, “Means and methods for treating bacterial infections” (VIB VZW, priority 2017, dated 2024).

The term MIC denotes the smallest concentration in the dilution series that meets the test's criterion for growth inhibition.

The subject of data set [1] is E. coli O157:H7. Type of data set: cell-based, Escherichia coli. The conditions noted are these: screening-stage peptides tested at 1, 6, 12 and 25 μg/mL. The procedure, abridged:
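Tandem-repeat aggregation-prone-region peptides from DMSO stocks were tested for growth inhibition of E. coli O157:H7 at 1, 6, 12 and 25 μg/mL.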

For data set [2], the system named is HeLa cells. As to the kind of experiment: In vitro mammalian cytotoxicity (LDH release, CellTiter Blue). Type of data set: cell-based, human. The protocol: Mammalian cytotoxicity was measured using the LDH release (Roche, Mannheim, Germany) and CellTiter Blue (Promega) methods. Briefly, HeLa cells (obtained from Bart De Strooper lab, tested to be mycoplasma free) were seeded in 96-well round bottom plates at a concentration of 3×10^5 cells/mL in Dulbecco's Modified Eagle's Medium and treated by different concentrations of peptides. Cells treated with 1% Triton™ X-100 and vehicle were considered as positive and negative controls, respectively. Micro-plates were incubated at 37° C., 5% CO2 and 90% humidity for 4 hours. The micro-plate was centrifuged at 1350 rpm for 10 minutes. 100 μL of supernatant was transferred into clear 96-well flat bottom microplates. In order to determine LDH activity in the supernatants, 100 μl reaction mix (catalyst and dye solution) were added to each well and incubated for 30 min at RT in the dark and the LDH reaction was stopped by adding 100 ul of the Stop solution. The absorbances of the samples were measured at 490 nm. The cell viability was calculated using the formula: (exp. value−negative control value)/(positive control value−negative control value)*100. The amount of absorbance is proportional to the number of living cells and corresponds to the cells' metabolic activity.
(In general: LDH leaks from cells whose membrane has failed.)

The test system of data set [3] is E. coli K-12 BW25113 strain (KEIO collection). Type of data set: cell-based, Escherichia coli. The protocol: (§1) The MICs of active peptides were determined via the Broth microdilution assay according to the EUCAST guideline, which were performed in 96-well polystyrene flat-bottom microtiter plates (BD Biosciences). Briefly, a single colony was inoculated into 5 mL LB medium and grown to the end-exponential growth phase in a shaking incubator at 37° C. Cultures were subsequently diluted to an OD600 of 0.002 ([…]) in fresh LB medium. 100 μL of LB medium with different concentration of peptides ranging from 100 μg/mL to 1 μg/mL were serially diluted to the sterile 96-well plate (at least 3 wells in each plate). Afterward, 100 μL of the diluted bacteria were pipetted into 96-well plates containing different concentration of peptides. In each plate, the grown bacteria with maximum concentration of carrier and medium were considered as positive and negative controls, respectively. Thereafter, 96-well plates was statically incubated overnight at 37° C. to allow bacterial growth. A multipurpose UV/VIS plate reader at OD590 nm, 1 s shaking measured the absorbance of the growth bacteria using a Perkin Elmer spectrophotometer (1420 Multilabel Counter Victor 3).

In data set [4] the test system is E. coli O157. It counts as cell-based, Escherichia coli. The conditions noted are these: E. coli 0157 (Table 2). The protocol: as §1
A short description of data set [5]: In vitro haemolytic activity test. Type of data set: cell-based. The conditions noted are these: human erythrocytes; read-out: LC50, concentration at which the peptide induces 50% lysis of human erythrocytes. The protocol:
The hemolytic activities of peptides were determined by hemolysis against human erythrocytes. Pooled fresh blood was obtained and erythrocytes were collected by centrifugation 3000 rpm for 5 minutes (Anticoagulated by EDTAK) (Cristina et al. 2015). The pellet was washed three times with PBS and was diluted to a concentration of 8% in PBS. 100 μL of 8% Red blood cells solution was mixed with 100 μL of serial dilutions of peptides in PBS buffer in 96 well plates (BD Biosciences). The reaction mixtures were incubated for 1 h at 37° C. Thereupon, the plate was centrifuged for 10 minutes at 3000 rpm and 100 μL of supernatant was transferred to a sterilized 96-well plate (flat bottom). The release of hemoglobin was determined by measuring the absorbance of the supernatant at 405 nm. […] Erythrocytes in 1% Triton and Max used concentration of vehicle were used as control of 100% and 0% hemolysis, respectively.

In brackets after ≈: the same amount, converted by molar mass. Like-named read-outs stand apart in the source and are kept apart here. Residues, ends and D or L forms follow the SMILES beside them.

As for `CC(C)C[C@H](NC(=O)CNC(=O)[C@H](CCCNC(=N)N)NC(=O)[C@@H]1CCCN1C(=O)[C@H](CCCNC(=N)N)NC(=O)[C@H](CCCNC(=N)N)NC(=O)[C@@H](NC(=O)[C@H](CC(C)C)NC(=O)[C@H](C)NC(=O)[C@H](CC(C)C)NC(=O)CNC(=O)[C@H](CC(C)C)NC(=O)CNC(=O)[C@@H](N)CCCNC(=N)N)C(C)C)C(=O)NCC(=O)N[C@@H](CC(C)C)C(=O)N[C@@H](C)C(=O)N[C@@H](CC(C)C)C(=O)N[C@H](C(=O)N[C@@H](CCCNC(=N)N)C(=O)N[C@@H](CCCNC(=N)N)C(=O)O)C(C)C` [Peptide P2] (H-RGLGLALVRRPRGLGLALVRR-OH), the “E. coli O157 (apparent MIC in screen)” value in data set [1] stood at 6 µg/mL. Further, the “toxicity towards mammalian cells” value in data set [2] is “little or no toxicity towards mammalian cells”. Further, the minimal inhibitory concentration (MIC) in data set [3] (KEIO WT), in data set [3] (Δ Clp A), in data set [3] (Δ Clp B), in data set [3] (Δ Clp P), in data set [3] (Δ Clp S) and in data set [3] (Δ Clp X) was 12 µg/mL (≈ 5.22 µM) in each case. Besides, the MIC was 12 µg/mL (≈ 5.22 µM) in data set [3] (Δ Dan J); 6 µg/mL (≈ 2.61 µM) in data set [3] (Δ Dan K); 12 µg/mL (≈ 5.22 µM) in data set [3] (Δ gro L); 12 µg/mL (≈ 5.22 µM) in data set [3] (Δ htp G); 6 µg/mL (≈ 2.61 µM) in data set [4]. Also, in data set [5], the HC50 at 1 h is 1100 µg/mL.
